Measurements as given in PubChem BioAssay AID2060505 (Molecular Pharmacology Branch, DTP, NCI, 2025).

System: 633275-114-R-J1-PDC complex spheroids, viability
Assay: Anticancer human tumor 633275-114-R-J1-PDC patient-derived endometrial adenocarcinoma cell line growth inhibition [GQUAD]
Conditions: for IC50: curve of first compound; for viability, T/C: stronger effect = lower value
Description: DNA G-quadruplex Stabilizer Agents in Combinations in Complex Spheroids
A high-throughput screen of multi-cell type tumor spheroids was designed to identify active combinations of DNA G-quadruplex stabilizer agents and targeted small molecules. Complex spheroids include a stromal component modeled by human endothelial cells (HUVEC) and fibroblasts modeled by human mesenchymal stem cells (MSCs). The concentration ranges selected for each drug and investigational agent were based upon clinically achievable concentrations if the clinical Cmax of the agent was known.
Compounds. The drugs and investigational agents: pidnarulex (CX-5461; NSC782164), APTO-253 (NSC789042), BRACO-19 (NSC847499), peposertib (NSC802822), ceralasertib (NSC780249), elimusertib (NSC800525), camonsertib (NSC841442), AZD-1390 (NSC803789), olaparib (NSC753686), talazoparib (NSC767125), ART-558 (NSC835418), sotorasib (NSC818433), MRTX-1133 (NSC836407), SN-38 (NSC673596), topotecan (NSC609699), etoposide (NSC141540), doxorubicin (NSC123127), gemcitabine (NSC613327), 5-fluorouracil (NSC19893), paclitaxel (NSC125973), vemurafenib (NSC761431), panobinostat (NSC761190), R-306465 (JNJ-16241199; NSC773264), adavosertib (NSC754352), TP-3654 (NSC805149), carboplatin (NSC241240), KSQ-4279 (NSC840948), and staurosporine (NSC755774) were obtained from the National Cancer Institute (NCI) Developmental Therapeutics Program Chemical Repository (34). The FDA-approved anticancer drug set is available from the NCI Developmental Therapeutics Program. […] The stock solutions were prepared in dimethyl sulfoxide (DMSO, Sigma-Aldrich, St. Louis, MO, cat. D2650) at 800-fold the tested concentration and stored at -70 degrees C prior to their use. All drugs and investigational agents were tested over a range starting from a high concentration at or near the clinical Cmax and decreasing in half-log increments. If the clinical Cmax for an agent had not been determined, the highest concentration tested was 10 microM.
2.3 Cell Culture. All cells were maintained in an incubator at 37 degrees C and 5% CO2 with 95% humidity. The PDC lines were cultured according to standard operating procedures established by the NCI PDMR. All PDCs were thawed and cultured in Matrigel-coated flasks prepared with a working solution of 1X Ham's F-12 nutrient mix, without supplementation (Invitrogen, cat. 11765054), 100 U/mL penicillin-streptomycin (Invitrogen, cat. 15140122), and 2.5% Matrigel (Corning Inc., cat. 354248) for the first three passages. The 857933-349-R-J2-PDC line was cultured in 6C/Colon 1B media, which includes advanced DMEM/F-12 (Thermo Fisher Scientific, cat. 12634028), 10 mM HEPES (Thermo Fisher Scientific, cat. 15630080), 1X GlutaMAX supplement (Thermo Fisher Scientific, cat. 35050061), 0.1 mg/mL primocin (InvivoGen, cat. ant-pm-2), 10% defined fetal bovine serum, heat inactivated (HyClone Laboratories Inc., cat. SH30070.03HI), 50% L-WRN conditioned media (ATCC, cat. CRL-3276), 1.25 mM N-Acetyl-L-cysteine (Sigma-Aldrich, cat. A9165), 10 mM nicotinamide (Sigma-Aldrich, cat. N0636), 1X B-27 supplement (Thermo Fisher Scientific, cat. 17504044), 1X N-2 supplement (Thermo Fisher Scientific, cat. 17502048), 10 microM Y-27632 dihydrochloride (Tocris Bioscience, cat. 1254), and 50 ng/mL human EGF recombinant protein (Thermo Fisher Scientific, cat. PHG0311). The 485176-168-R4-J1-PDC line was cultured in Panc media, which includes all 6C/Colon 1B media components plus 100 ng/mL human FGF-10 (Thermo Fisher Scientific, cat. 100-26), 500 nM SB-431542 (Selleckchem, cat. S1067), and gastrin (Tocris, cat. 3006).
[…]

[1] = second compound 0.0316 µM, first compound 0.0316 µM
[2] = second compound 0.0316 µM, first compound 0.1 µM
[3] = second compound 0.0316 µM, first compound 0.316 µM
[4] = second compound 0.0316 µM, first compound 1 µM
[5] = second compound 0.0316 µM, first compound 3.16 µM
[6] = second compound 0.0316 µM, first compound 10 µM
[7] = second compound 0.1 µM, first compound 0.0316 µM
[8] = second compound 0.1 µM, first compound 0.1 µM
[9] = second compound 0.1 µM, first compound 0.316 µM
[10] = second compound 0.1 µM, first compound 1 µM
[11] = second compound 0.1 µM, first compound 3.16 µM
[12] = second compound 0.1 µM, first compound 10 µM
[13] = second compound 0.316 µM, first compound 0.0316 µM
[14] = second compound 0.316 µM, first compound 0.1 µM
[15] = second compound 0.316 µM, first compound 0.316 µM
[16] = second compound 0.316 µM, first compound 1 µM
[17] = second compound 0.316 µM, first compound 3.16 µM
[18] = second compound 0.316 µM, first compound 10 µM
[19] = second compound 1 µM, first compound 0.0316 µM
[20] = second compound 1 µM, first compound 0.1 µM
[21] = second compound 1 µM, first compound 0.316 µM
[22] = second compound 1 µM, first compound 1 µM
[23] = second compound 1 µM, first compound 3.16 µM
[24] = second compound 1 µM, first compound 10 µM
[25] = second compound 3.16 µM, first compound 0.0316 µM
[26] = second compound 3.16 µM, first compound 0.1 µM
[27] = second compound 3.16 µM, first compound 0.316 µM
[28] = second compound 3.16 µM, first compound 1 µM
[29] = second compound 3.16 µM, first compound 3.16 µM
[30] = second compound 3.16 µM, first compound 10 µM
[31] = second compound 10 µM, first compound 0.0316 µM
[32] = second compound 10 µM, first compound 0.1 µM
[33] = second compound 10 µM, first compound 0.316 µM
[34] = second compound 10 µM, first compound 1 µM
[35] = second compound 10 µM, first compound 3.16 µM
[36] = second compound 10 µM, first compound 10 µM
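Also: spheroids exposed to the agents for seven days.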
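For viability, T/C in this document: percent of DMSO vehicle control viability which is 100%.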

## CC1COCCN1c1cc(C2(O)CC3CCC(C2)O3)c2cnn(-c3ccn[nH]3)c2n1 (stereo unspecified) + CN(C)c1ccc(Nc2c3ccc(NC(=O)CCN4CCCC4)cc3nc3cc(NC(=O)CCN4CCCC4)ccc23)cc1
Second compound 0.0316 µM
  IC50: 93.5 nM
Second compound 0.1 µM
  IC50: 92.7 nM
Second compound 0.316 µM
  IC50: 105 nM
Second compound 1 µM
  IC50: 65.3 nM
Second compound 3.16 µM
  IC50: 53.2 nM
Second compound 10 µM
  IC50: < 31.6 nM
[1]
  viability, T/C: 73.6%
[2]
  viability, T/C: 48.9%
[3]
  viability, T/C: 28.7%
[4]
  viability, T/C: 18.4%
[5]
  viability, T/C: 13.6%
[6]
  viability, T/C: 9.33%
[7]
  viability, T/C: 79.9%
[8]
  viability, T/C: 46.5%
[9]
  viability, T/C: 30.2%
[10]
  viability, T/C: 19.8%
[11]
  viability, T/C: 15.4%
[12]
  viability, T/C: 9.07%
[13]
  viability, T/C: 70.7%
[14]
  viability, T/C: 50.7%
[15]
  viability, T/C: 33.1%
[16]
  viability, T/C: 19.2%
[17]
  viability, T/C: 15.8%
[18]
  viability, T/C: 10.4%
[19]
  viability, T/C: 62.7%
[20]
  viability, T/C: 41.7%
[21]
  viability, T/C: 30.4%
[22]
  viability, T/C: 19.8%
[23]
  viability, T/C: 14.4%
[24]
  viability, T/C: 9.06%
[25]
  viability, T/C: 58.8%
[26]
  viability, T/C: 39%
[27]
  viability, T/C: 26.7%
[28]
  viability, T/C: 15.3%
[29]
  viability, T/C: 12%
[30]
  viability, T/C: 8.3%
[31]
  viability, T/C: 29.2%
[32]
  viability, T/C: 23.9%
[33]
  viability, T/C: 17%
[34]
  viability, T/C: 10.9%
[35]
  viability, T/C: 8.55%
[36]
  viability, T/C: 4.92%

## CC1COCCN1c1cc(C2(S(C)(=N)=O)CC2)nc(-c2ccnc3[nH]ccc23)n1 (stereo unspecified) + CN(C)c1ccc(Nc2c3ccc(NC(=O)CCN4CCCC4)cc3nc3cc(NC(=O)CCN4CCCC4)ccc23)cc1
Second compound 0.0316 µM
  IC50: 3490 nM
Second compound 0.1 µM
  IC50: 4430 nM
Second compound 0.316 µM
  IC50: 3810 nM
Second compound 1 µM
  IC50: 2780 nM
Second compound 3.16 µM
  IC50: 3050 nM
Second compound 10 µM
  IC50: < 31.6 nM
[1]
  viability, T/C: 101%
[2]
  viability, T/C: 103%
[3]
  viability, T/C: 103%
[4]
  viability, T/C: 74.2%
[5]
  viability, T/C: 54.6%
[6]
  viability, T/C: 34.9%
[7]
  viability, T/C: 115%
[8]
  viability, T/C: 96.1%
[9]
  viability, T/C: 97.1%
[10]
  viability, T/C: 84.6%
[11]
  viability, T/C: 53.1%
[12]
  viability, T/C: 34.5%
[13]
  viability, T/C: 109%
[14]
  viability, T/C: 94.7%
[15]
  viability, T/C: 101%
[16]
  viability, T/C: 82.9%
[17]
  viability, T/C: 52.8%
[18]
  viability, T/C: 35.4%
[19]
  viability, T/C: 98%
[20]
  viability, T/C: 87.8%
[21]
  viability, T/C: 95.4%
[22]
  viability, T/C: 70.1%
[23]
  viability, T/C: 49%
[24]
  viability, T/C: 33.7%
[25]
  viability, T/C: 86.3%
[26]
  viability, T/C: 85.1%
[27]
  viability, T/C: 84.4%
[28]
  viability, T/C: 66.9%
[29]
  viability, T/C: 50.7%
[30]
  viability, T/C: 32.8%
[31]
  viability, T/C: 37%
[32]
  viability, T/C: 38.2%
[33]
  viability, T/C: 36%
[34]
  viability, T/C: 32.6%
[35]
  viability, T/C: 28%
[36]
  viability, T/C: 19.9%

## COc1ccc([C@@H](O)c2cc(-c3ncnc4cc(N5CCOCC5)ccc34)c(F)cc2Cl)nn1 + CN(C)c1ccc(Nc2c3ccc(NC(=O)CCN4CCCC4)cc3nc3cc(NC(=O)CCN4CCCC4)ccc23)cc1
Second compound 0.0316 µM
  IC50: 4670 nM
Second compound 0.1 µM
  IC50: 3730 nM
Second compound 0.316 µM
  IC50: 2640 nM
Second compound 1 µM
  IC50: 1710 nM
Second compound 3.16 µM
  IC50: 938 nM
Second compound 10 µM
  IC50: < 31.6 nM
[1]
  viability, T/C: 108%
[2]
  viability, T/C: 97.2%
[3]
  viability, T/C: 83.7%
[4]
  viability, T/C: 74.7%
[5]
  viability, T/C: 55.7%
[6]
  viability, T/C: 37.6%
[7]
  viability, T/C: 96%
[8]
  viability, T/C: 102%
[9]
  viability, T/C: 88.9%
[10]
  viability, T/C: 71.1%
[11]
  viability, T/C: 55.3%
[12]
  viability, T/C: 32.3%
[13]
  viability, T/C: 92.5%
[14]
  viability, T/C: 91.6%
[15]
  viability, T/C: 93.5%
[16]
  viability, T/C: 65.3%
[17]
  viability, T/C: 49.8%
[18]
  viability, T/C: 30.9%
[19]
  viability, T/C: 91.8%
[20]
  viability, T/C: 88%
[21]
  viability, T/C: 81.3%
[22]
  viability, T/C: 59.6%
[23]
  viability, T/C: 38.7%
[24]
  viability, T/C: 26.8%
[25]
  viability, T/C: 84.2%
[26]
  viability, T/C: 81.2%
[27]
  viability, T/C: 73.7%
[28]
  viability, T/C: 46.9%
[29]
  viability, T/C: 30.6%
[30]
  viability, T/C: 20.4%
[31]
  viability, T/C: 33.8%
[32]
  viability, T/C: 34.8%
[33]
  viability, T/C: 21.5%
[34]
  viability, T/C: 13.8%
[35]
  viability, T/C: 11.8%
[36]
  viability, T/C: 9.3%
